The values below are quoted from earlier work in patent US20120277197A1, “TIGECYCLINE FORMULATIONS” (WYETH, priority 2008, published 2012).

For the data set the following is noted: cited from earlier work; for activity retained after frozen storage: after 14-23 days of frozen storage.

Regarding `CC1(C)S[C@@H]2[C@H](NC(=O)[C@H](N)c3ccc(O)cc3)C(=O)N2[C@H]1C(=O)O` [amoxycillin sodium], the “stability on freezing solutions” value (in normal saline or in glucose) is “markedly reduced stability”.

With `CC1(C)S[C@@H]2[C@H](NC(=O)C(C(=O)O)c3ccccc3)C(=O)N2[C@H]1C(=O)O` (some centres unmarked) [carbenicillin], the “activity retained after frozen storage” value is reported as “retained essentially all of their activity”.

As to `CC(=O)OCC1=C(C(=O)O)N2C(=O)[C@@H](NC(=O)Cc3cccs3)[C@H]2SC1` [cephalothin], the “activity retained after frozen storage” value is recorded as “retained essentially all of their activity”.

Turning to `C[C@@H](O)[C@H]1C(=O)N2C(C(=O)O)=C(S[C@@H]3CN[C@H](C(=O)Nc4cccc(C(=O)O)c4)C3)[C@H](C)[C@H]12` [ertapenem], where the note is “frozen at −20° C.”, the “stability of solutions frozen at −20° C.” value is on record as “extreme variability in stability”.

As to penicillin, the “activity retained after frozen storage” value was “retained essentially all of their activity”.
